# Data published in USRE38132E1, “Phenylpyrrolidines, phenylimidazolidines,3-phenyl-1,3-oxizolidines and 3-phenyl-1,3-thiazolidines and their use in the treatment of inflammatory disease” (Boehringer Ingelheim Pharmaceuticals, Inc., priority 1997, dated 2003).
# Like-named read-outs stand apart in the source and are kept apart here.
# Target: T1, interaction of ICAM-1 with the Leukointegrin CD18/CD11a (LFA-1) (Homo sapiens, UniProt P05107+P20701)
# T1 construct: endogenous in cells; sICAM-1: made in house, secreted from transfected CHO DUX cells
# Assay: Assay to determine inhibition of LFA-1 binding to ICAM-1 (immunopurified LFA-1 on plate-bound sICAM-1, ELISA readout)
# [1] = values marked e approximated from incomplete dose-response curve
# T1 sequence (P20701 26-1170): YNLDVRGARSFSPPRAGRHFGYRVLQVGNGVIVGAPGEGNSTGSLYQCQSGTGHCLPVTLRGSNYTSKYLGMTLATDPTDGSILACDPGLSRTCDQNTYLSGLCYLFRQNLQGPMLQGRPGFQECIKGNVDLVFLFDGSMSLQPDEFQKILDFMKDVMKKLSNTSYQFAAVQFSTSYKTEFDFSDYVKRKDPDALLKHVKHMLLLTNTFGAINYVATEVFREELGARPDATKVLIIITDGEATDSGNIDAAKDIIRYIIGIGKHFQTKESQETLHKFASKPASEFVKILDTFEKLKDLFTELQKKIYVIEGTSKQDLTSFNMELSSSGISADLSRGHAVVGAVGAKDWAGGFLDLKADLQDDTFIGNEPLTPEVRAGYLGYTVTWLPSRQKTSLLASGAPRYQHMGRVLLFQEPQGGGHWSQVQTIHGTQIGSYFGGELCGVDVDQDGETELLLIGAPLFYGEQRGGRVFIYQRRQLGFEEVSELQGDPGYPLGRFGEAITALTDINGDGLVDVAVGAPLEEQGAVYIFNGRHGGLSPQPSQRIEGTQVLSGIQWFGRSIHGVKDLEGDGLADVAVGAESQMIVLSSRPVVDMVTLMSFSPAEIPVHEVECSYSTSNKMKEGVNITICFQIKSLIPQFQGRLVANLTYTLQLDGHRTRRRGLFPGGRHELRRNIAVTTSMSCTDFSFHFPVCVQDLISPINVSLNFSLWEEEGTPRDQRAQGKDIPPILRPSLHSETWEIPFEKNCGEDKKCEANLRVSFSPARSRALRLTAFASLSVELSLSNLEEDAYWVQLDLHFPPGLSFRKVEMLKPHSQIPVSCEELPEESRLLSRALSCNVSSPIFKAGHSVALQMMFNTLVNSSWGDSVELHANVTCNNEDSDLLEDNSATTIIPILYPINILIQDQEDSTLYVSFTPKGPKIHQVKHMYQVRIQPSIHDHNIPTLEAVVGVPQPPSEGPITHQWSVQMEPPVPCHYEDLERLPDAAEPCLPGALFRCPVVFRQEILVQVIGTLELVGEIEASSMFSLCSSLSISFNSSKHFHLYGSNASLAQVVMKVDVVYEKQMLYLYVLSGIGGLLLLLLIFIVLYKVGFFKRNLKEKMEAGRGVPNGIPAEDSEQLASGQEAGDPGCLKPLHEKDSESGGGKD
# T1 sequence (P05107 23-769): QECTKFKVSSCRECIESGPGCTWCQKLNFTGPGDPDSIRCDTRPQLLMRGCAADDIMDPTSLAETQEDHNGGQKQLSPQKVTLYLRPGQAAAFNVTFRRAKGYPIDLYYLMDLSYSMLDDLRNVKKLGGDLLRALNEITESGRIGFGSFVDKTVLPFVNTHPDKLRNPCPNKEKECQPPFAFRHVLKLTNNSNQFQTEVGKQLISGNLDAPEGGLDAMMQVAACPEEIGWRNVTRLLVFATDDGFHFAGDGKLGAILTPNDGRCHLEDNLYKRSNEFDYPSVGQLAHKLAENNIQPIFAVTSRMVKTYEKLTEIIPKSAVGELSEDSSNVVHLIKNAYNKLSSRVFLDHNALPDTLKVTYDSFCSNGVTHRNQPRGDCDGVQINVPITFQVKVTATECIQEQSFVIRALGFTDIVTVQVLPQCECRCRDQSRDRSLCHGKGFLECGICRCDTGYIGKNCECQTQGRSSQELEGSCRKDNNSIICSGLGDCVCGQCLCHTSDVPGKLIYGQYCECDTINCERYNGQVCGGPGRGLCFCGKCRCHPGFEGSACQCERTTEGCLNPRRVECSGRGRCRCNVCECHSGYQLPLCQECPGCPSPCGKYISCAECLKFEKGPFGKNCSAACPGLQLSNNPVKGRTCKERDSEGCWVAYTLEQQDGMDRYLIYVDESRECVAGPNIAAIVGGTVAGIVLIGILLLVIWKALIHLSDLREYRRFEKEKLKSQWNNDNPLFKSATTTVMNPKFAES
Compound,Kd [1] [nM],other results
CN(C)C(=O)CN1C(=O)N(c2cc(Cl)cc(Cl)c2)C(=O)[C@@]1(C)Cc1ccc(Br)cc1 [Example 107],490,
C[C@@]1(Cc2ccc(Br)cc2)C(=O)N(c2cc(Cl)cc(Cl)c2)C(=O)N1CCCCCP(=O)(O)O [Example 222],,Kd: 60 nM
CC1(Cc2ccc(-c3ccccc3C(F)(F)F)cc2)NC(=O)N(c2cc(Cl)cc(Cl)c2)C1=O (stereo not drawn) [Example 213],,Kd: ~2000 nM
O=C1NC(Cc2cccnc2)C(=O)N1c1cc(Cl)cc(Cl)c1 (stereo not drawn) [Example 181],,"inhibition at 160 µg/mL (at 160 μg/mL, read-out: LFA-1/ICAM Binding Assay percent inhibition): 47%"
C[C@]1(Cc2ccc(C(=O)c3ccccc3)cc2)NC(=O)N(c2cc(Cl)cc(Cl)c2)C1=O [Example 216],,Kd: 500 nM
COC(=O)c1ccc(CC2(C)C(=O)N(c3cc(Cl)cc(Cl)c3)C(=O)N2C)cc1 (stereo not drawn) [Example 174],710,
O=C1NC(CCc2ccc(I)cc2)C(=O)N1c1cc(Cl)cc(Cl)c1 (stereo not drawn) [Example 217],,Kd: 1780 nM
CN(C)C(=O)c1ccc(CC2(C)C(=O)N(c3cc(Cl)cc(Cl)c3)C(=O)N2C)cc1 (stereo not drawn) [Example 258],,Kd: 1660 nM
C[C@@]1(Cc2ccc(Br)cc2)C(=O)N(c2cc(Cl)cc(Cl)c2)C(=O)N1Cc1ccccc1C(=O)O [Example 239],,Kd: 280 nM
C[C@@]1(Cc2ccc(Br)cc2)C(=O)N(c2cc(Cl)cc(Cl)c2)C(=O)N1C(=O)[C@@H](N)CO [Example 233],,Kd: 1790 nM
CN1C(=O)N(c2cc(Cl)cc(Cl)c2)C(=O)C1(CN)Cc1ccc(Br)cc1 (stereo not drawn) [Example 230],,Kd: 2200 nM
C[C@H](O)CN1C(=O)N(c2cc(Cl)cc(Cl)c2)C(=O)[C@@]1(C)Cc1ccc(Br)cc1 [Example 116],190,
O=C1NC(Cc2ccccc2)C(=O)N1c1cc(Cl)c(I)c(Cl)c1 (stereo not drawn) [Example 71],4380,
C[C@@]1(Cc2ccc(Br)cc2)C(=O)N(c2cc(Cl)cc(Cl)c2)C(=O)N1C(=O)[C@@H]1CCCN1 [Example 234],,Kd: 410 nM
C[C@@]1(Cc2ccc(Br)cc2)C(=O)N(c2cc(Cl)cc(Cl)c2)C(=O)N1CCCCCCCl [Example 120],480,
C[C@@]1(Cc2ccc(Br)cc2)C(=O)N(c2cc(Cl)cc(Cl)c2)C(=O)N1CCCCCCP(=O)(O)O [Example 220],,Kd: 270 nM
CC1(Cc2ccccc2)CC(=O)N(c2cc(Cl)cc(Cl)c2)C1=O (stereo not drawn) [Example 75],290,
O=C1NC(Cc2ccc(Br)cc2)C(=O)N1c1cc(Cl)cc(Cl)c1 (stereo not drawn) [Example 19],760,
C[C@]1(Cc2ccc(Br)cc2)NC(=O)N(c2cccc(Cl)c2)C1=O [Example 36],4050,
CC1(Cc2cccc(OC(F)(F)F)c2)NC(=O)N(c2cc(Cl)cc(Cl)c2)C1=O (stereo not drawn) [Example 68],2580,
O=C1NC(Cc2ccsc2)C(=O)N1c1cc(Cl)cc(Cl)c1 (stereo not drawn) [Example 26],2750,
CN1C(=O)N(c2cccc(Cl)c2)C(=O)[C@@]1(C)Cc1ccc(Br)cc1 [Example 101],680,
C[C@@]1(Cc2ccc(Br)cc2)C(=O)N(c2cc(Cl)cc(Cl)c2)C(=O)N1Cc1cccc(C#N)c1 [Example 104],270,
CN1C(=O)N(c2cc(Cl)cc(Cl)c2)C(=O)C1(C)Cc1ccccc1 (stereo not drawn) [Example 158],690,
CN1C(=S)N(c2cc(Cl)cc(Cl)c2)C(=S)C1(C)Cc1ccc(Br)cc1 (stereo not drawn) [Example 79],430,
CC1(Cc2ccccc2)C(=O)N(c2cc(Cl)cc(Cl)c2)C(=O)N1CCCCC(=O)O (stereo not drawn) [Example 219],,Kd: 1030 nM
C[C@@]1(Cc2ccc(Br)cc2)C(=O)N(c2cc(Cl)cc(Cl)c2)C(=O)N1CCCCCP(=O)(O)O [Example 221],,Kd: 140 nM

Compound,Kd [1] [nM],other results
CC1(Cc2cccc(C(F)(F)F)c2)NC(=O)N(c2cc(Cl)cc(Cl)c2)C1=O (stereo not drawn) [Example 53],1470,
CN1C(=O)N(c2cc(Cl)cc(Cl)c2)C(=O)C1(C)Cc1cccc(Cl)c1 (stereo not drawn) [Example 155],510,
CN1C(=O)N(c2cc(Cl)cc(Cl)c2)C(=O)C1(C)Cc1cccc(C#N)c1 (stereo not drawn) [Example 153],2190,
COc1cccc(-c2ccc(CC3(C)NC(=O)N(c4cc(Cl)cc(Cl)c4)C3=O)cc2)c1 (stereo not drawn) [Example 214],,Kd: 90 nM
CN1C(=O)N(c2cc(Cl)cc(Cl)c2)C(=O)C1(C)Cc1ccccc1C#N (stereo not drawn) [Example 152],2660,
O=C1C(Cc2ccccc2)N(Cc2ccccc2)C(=O)N1c1cc(Cl)cc(Cl)c1 (stereo not drawn) [Example 84],420,
CN1C(=O)N(c2cc(Cl)cc(Cl)c2)C(=O)C1(C)Cc1ccc(C(=O)N2CCCCC2)cc1 (stereo not drawn) [Example 259],,Kd: 3540 nM
O=C(c1ccccc1)c1ccc(CC2NC(=O)N(c3cc(Cl)cc(Cl)c3)C2=O)cc1 (stereo not drawn) [Example 1],1640,
C[C@@]1(Cc2ccc(Br)cc2)C(=O)N(c2cc(Cl)cc(Cl)c2)C(=O)N1Cc1ccc(O)cc1 [Example 246],,Kd: 250 nM
CC1(Cc2cc(F)cc(F)c2)NC(=O)N(c2cc(Cl)cc(Cl)c2)C1=O (stereo not drawn) [Example 58],2850,
CC(C)(C)OC(=O)CN1C(=O)N(c2cc(Cl)cc(Cl)c2)C(=O)C1(C)Cc1ccccc1 (stereo not drawn) [Example 91],430,
C[C@@]1(Cc2ccc(Br)cc2)C(=O)N(c2cc(Cl)cc(Cl)c2)C(=O)N1C1CCN(CP(=O)(O)O)CC1 [Example 236],,Kd: 330 nM
CN1C(=O)N(c2cc(Cl)cc(Cl)c2)C(=O)C1(C)Cc1cccc(F)c1 (stereo not drawn) [Example 147],340,
CCCN1C(=O)N(c2cc(Cl)cc(Cl)c2)C(=O)C1(C)Cc1ccc(Br)cc1 (stereo not drawn) [Example 106],140,
CC1(Cc2ccc(Br)cc2)NC(=S)N(c2cc(Cl)cc(Cl)c2)C1=S (stereo not drawn) [Example 78],340,
CC(C)C1(Cc2ccccc2)NC(=O)N(c2cc(Cl)cc(Cl)c2)C1=O (stereo not drawn) [Example 32],12100,
CN1C(=O)N(c2cc(Cl)cc(Cl)c2)C(=O)C1(C)Cc1ccc(S(C)(=O)=O)cc1 (stereo not drawn) [Example 176],3960,
C[C@@]1(Cc2ccc(Br)cc2)C(=O)N(c2cc(Cl)cc(Cl)c2)C(=O)N1C(=O)[C@H](N)CO [Example 232],,Kd: 1240 nM
COCC1(Cc2ccc(Br)cc2)C(=O)N(c2cc(Cl)cc(Cl)c2)C(=O)N1C (stereo not drawn) [Example 175],230,
COc1ccc(CC2(C)C(=O)N(c3cc(Cl)cc(Cl)c3)C(=O)N2C)cc1 (stereo not drawn) [Example 166],280,
COc1ccc(CN2C(=O)N(c3cc(Cl)cc(Cl)c3)C(=O)[C@@]2(C)Cc2ccc(Br)cc2)cc1 [Example 113],1910,
CN1C(=O)N(c2cc(Cl)cc(Cl)c2)C(=O)C1(C)Cc1ccccc1Br (stereo not drawn) [Example 145],1050,
Cc1cc(C)cc(-c2ccc(CC3(C)NC(=O)N(c4cc(Cl)cc(Cl)c4)C3=O)cc2)c1 (stereo not drawn) [Example 210],,Kd: 540 nM
CC1(Cc2ccccc2)C(=O)N(c2cc(Cl)cc(Cl)c2)C(=O)N1C1CC1 (stereo not drawn) [Example 150],510,
O=C1NC(C(c2ccccc2)c2ccccc2)C(=O)N1c1cc(Cl)cc(Cl)c1 (stereo not drawn) [Example 13],1960,
CC(C)N1C(=O)N(c2cc(Cl)cc(Cl)c2)C(=O)C1(C)Cc1ccc(Br)cc1 (stereo not drawn) [Example 139],790,

# Second part, led by results:
Kd [1] [nM],Compound,other results
730,CC1(Cc2ccc(-c3cccc(Br)c3)cc2)NC(=O)N(c2cc(Cl)cc(Cl)c2)C1=O (stereo not drawn) [Example 206],
4310,CC(C)(C)C(=O)c1ccc(CC2(C)NC(=O)N(c3cc(Cl)cc(Cl)c3)C2=O)cc1 (stereo not drawn) [Example 47],
650,CC1(Cc2ccc(-c3ccc(C(F)(F)F)cc3)cc2)NC(=O)N(c2cc(Cl)cc(Cl)c2)C1=O (stereo not drawn) [Example 208],
90,CC1(Cc2ccc(-c3ccccc3F)cc2)NC(=O)N(c2cc(Cl)cc(Cl)c2)C1=O (stereo not drawn) [Example 200],
140,CCOc1cccc(-c2ccc(CC3(C)NC(=O)N(c4cc(Cl)cc(Cl)c4)C3=O)cc2)c1 (stereo not drawn) [Example 198],
260,C[C@@]1(Cc2ccc(Br)cc2)C(=O)N(c2cc(Cl)cc(Cl)c2)C(=O)N1Cc1ccccc1C#N [Example 114],
6300,CC1(Cc2cccc(O)c2)NC(=O)N(c2cc(Cl)cc(Cl)c2)C1=O (stereo not drawn) [Example 11],
1590,CC1(Cc2ccc(C(C)(C)C)cc2)NC(=O)N(c2cc(Cl)cc(Cl)c2)C1=O (stereo not drawn) [Example 52],
1360,CCCC1(Cc2ccccc2)NC(=O)N(c2cc(Cl)cc(Cl)c2)C1=O (stereo not drawn) [Example 31],
250,C[C@]1(Cc2cccc(-c3ccccc3)c2)NC(=O)N(c2cc(Cl)cc(Cl)c2)C1=O [Example 185],
270,CC1(Cc2ccc(-c3ccc(Cl)s3)cc2)NC(=O)N(c2cc(Cl)cc(Cl)c2)C1=O (stereo not drawn) [Example 199],
500,CC1(Cc2ccc(-c3cccc([N+](=O)[O-])c3)cc2)NC(=O)N(c2cc(Cl)cc(Cl)c2)C1=O (stereo not drawn) [Example 204],
340,CC(=O)Nc1cccc(-c2ccc(CC3(C)NC(=O)N(c4cc(Cl)cc(Cl)c4)C3=O)cc2)c1 (stereo not drawn) [Example 203],
560,CC1(Cc2ccc(-c3ccc(Cl)cc3)cc2)NC(=O)N(c2cc(Cl)cc(Cl)c2)C1=O (stereo not drawn) [Example 205],
2260,COC(=O)c1ccc(CC2(C)NC(=O)N(c3cc(Cl)cc(Cl)c3)C2=O)cc1 (stereo not drawn) [Example 46],
940,C[C@]1(Cc2ccc(-c3ccc(C(=O)O)cc3)cc2)NC(=O)N(c2cc(Cl)cc(Cl)c2)C1=O [Example 183],
~1000,Cc1ccc(-c2ccc(CC3(C)NC(=O)N(c4cc(Cl)cc(Cl)c4)C3=O)cc2)cc1[N+](=O)[O-] (stereo not drawn) [Example 192],
1280,CCOc1ccc(-c2ccc(CC3(C)NC(=O)N(c4cc(Cl)cc(Cl)c4)C3=O)cc2)cc1 (stereo not drawn) [Example 207],
410,CN1C(=O)N(c2cc(Cl)cc(Cl)c2)C(=O)C1(C)Cc1ccc(C(=O)c2ccccc2)cc1 (stereo not drawn) [Example 168],
140,CC1(Cc2ccc(-c3ccccc3Cl)cc2)NC(=O)N(c2cc(Cl)cc(Cl)c2)C1=O (stereo not drawn) [Example 191],
290,CCOc1ccccc1-c1ccc(CC2(C)NC(=O)N(c3cc(Cl)cc(Cl)c3)C2=O)cc1 (stereo not drawn) [Example 193],
90,CC1(Cc2ccc(-c3ccsc3)cc2)NC(=O)N(c2cc(Cl)cc(Cl)c2)C1=O (stereo not drawn) [Example 196],
230,CC1(Cc2ccc(-c3cccc(Cl)c3)cc2)NC(=O)N(c2cc(Cl)cc(Cl)c2)C1=O (stereo not drawn) [Example 202],
600,C[C@]1(Cc2c[nH]c3ccccc23)NC(=O)N(c2cc(Cl)cc(Cl)c2)C1=O [Example 42],
~52000,CC1(Cc2csc3ccccc23)NC(=O)N(c2cc(Cl)cc(Cl)c2)C1=O (stereo not drawn) [Example 27],
